B1: wild type α2: β2 complex: E. coli class Ia ribonucleotide reductase (protein, UniProt P00452 1-761; P69924 2-376, looked up)
Ribonucleoside-diphosphate … 1: MNQNLLVTKRDGSTERINLDKIHRVLDWAAEGLHNVSISQVELRSHIQFYDGIKTSDIHETIIKAAADLISRDAPDYQYLAARLAIFHLRKKAYGQFEPPALYDHVVKMVEMGKYDNHLLEDYTEEEFKQMDTFIDHDRDMTFSYAAVKQLEGKYLVQNRVTGEIYESAQFLYILVAACLFSNYPRETRLQYVKRFYDAVSTFKISLPTPIMSGVRTPTRQFSSCVLIECGDSLDSINATSSAIVKYVSQRAGIGINAGRIRALGSPIRGGEAFHTGCIPFYKHFQTAVKSCSQGGVRGGAATLFYPMWHLEVESLLVLKNNRGVEGNRVRHMDYGVQINKLMYTRLLKGEDITLFSPSDVPGLYDAFFADQEEFERLYTKYEKDDSIRKQRVKAVELFSLMMQERASTGRIYIQNVDHCNTHSPFDPAIAPVRQSNLCLEIALPTKPLNDVNDENGEIALCTLSAFNLGAINNLDELEELAILAVRALDALLDYQDYPIPAAKRGAMGRRTLGIGVINFAYYLAKHGKRYSDGSANNLTHKTFEAIQYYLLKASNELAKEQGACPWFNETTYAKGILPIDTYKKDLDTIANEPLHYDWEALRESIKTHGLRNSTLSALMPSETSSQISNATNGIEPPRGYVSIKASKDGILRQVVPDYEHLHDAYELLWEMPGNDGYLQLVGIMQKFIDQSISANTNYDPSRFPSGKVPMQQLLKDLLTAYKFGVKTLYYQNTRDGAEDAQDDLVPSIQDDGCESGACKI
Ribonucleoside-diphosphate … 2: AYTTFSQTKNDQLKEPMFFGQPVNVARYDQQKYDIFEKLIEKQLSFFWRPEEVDVSRDRIDYQALPEHEKHIFISNLKYQTLLDSIQGRSPNVALLPLISIPELETWVETWAFSETIHSRSYTHIIRNIVNDPSVVFDDIVTNEQIQKRAEGISSYYDELIEMTSYWHLLGEGTHTVNGKTVTVSLRELKKKLYLCLMSVNALEAIRFYVSFACSFAFAERELMEGNAKIIRLIARDEALHLTGTQHMLNLLRSGADDPEMAEIAEECKQECYDLFVQAAQQEKDWADYLFRDGSMIGLNKDILCQYVEYITNIRMQAVGLDLPFQTRSNPIPWINTWLVSDNVQVAPQEVEVSSYLVGQIDSEVDTDDLSNFQL

Tests used:
pKa of [Re]–F3Y–βC19 = type: physicochemical; details: pH 8.3
[1] = pH 8.3; cited from earlier work
α2: β2 complex = details: cited from earlier work

Molecule	F3Y deprotonated (pKa of [Re]–F3Y–βC19)	reduction potential of F3Y above tyrosine [1]	baseline catalytic turnover (α2: β2 complex) [s⁻¹]
N[C@@H](Cc1c(F)cc(O)c(F)c1F)C(=O)O [F3Y, 2,3,6-trifluorotyrosine]	~ 94%	~ 180 mV	–
B1	–	–	2 to 10

— paper PMC3268775 (Journal of the American Chemical Society, 2012)
